Laboratory results as given in patent US8334382B2, “Substituted biaryl piperazinyl-pyridine analogues” (Neurogen Corporation, priority 2004, dated 2012).
pIC50: −log10 of the molar value.

Molecular target: T1, human capsaicin receptor (Homo sapiens, UniProt Q8NER1)
T1 construct: expressed in transfected cells; host or cells: HEK293, stably transfected with pBK-CMV construct
Test: Calcium mobilization assay, determination of antagonist activity
Type: cell-based
Details: capsaicin at EC50; cells expressing human capsaicin receptor; Example 6
Procedure: A cDNA encoding full length human capsaicin receptor (SEQ ID NO:1, 2 or 3 of U.S. Pat. No. 6,482,611) is subcloned in the plasmid pBK-CMV (Stratagene, La Jolla, Calif.) for recombinant expression in mammalian cells.
Human embryonic kidney (HEK293) cells are transfected with the pBK-CMV expression construct encoding the full length human capsaicin receptor using standard methods. The transfected cells are selected for two weeks in media containing G418 (400 μg/ml) to obtain a pool of stably transfected cells. Independent clones are isolated from this pool by limiting dilution to obtain clonal stable cell lines for use in subsequent experiments.
Cells transfected with expression plasmids (as described in Example 4) and thereby expressing human capsaicin receptor are seeded and grown to 70-90% confluency in FALCON black-walled, clear-bottomed 96-well plates (#3904, BECTON-DICKINSON, Franklin Lakes, N.J.). The culture medium is emptied from the 96 well plates and FLUO-3 AM calcium sensitive dye (Molecular Probes, Eugene, Oreg.) is added to each well (dye solution: 1 mg FLUO-3 AM, 440 μL DMSO and 440 μl 20% pluronic acid in DMSO, diluted 1:250 in Krebs-Ringer HEPES (KRH) buffer (25 mM HEPES, 5 mM KCl, 0.96 mM NaH2PO4, 1 mM MgSO4, 2 mM CaCl2, 5 mM glucose, 1 mM probenecid, pH 7.4), 50 μl diluted solution per well). Plates are covered with aluminum foil and incubated at 37° C. for 1-2 h in an environment containing 5% CO2. After the incubation, the dye is emptied from the plates, and the cells are washed once with KRH buffer, and resuspended in KRH buffer.
To measure the ability of a test compound to agonize or antagonize a calcium mobilization response in cells expressing capsaicin receptors to capsaicin or other vanilloid agonist, the EC50 of the agonist capsaicin is first determined. An additional 20 μl of KRH buffer and 1 μl DMSO is added to each well of cells, prepared as described above. 100 μl capsaicin in KRH buffer is automatically transferred by the FLIPR instrument to each well. Capsaicin-induced calcium mobilization is monitored using either FLUOROSKAN ASCENT (Labsystems; Franklin, Mass.) or FLIPR (fluorometric imaging plate reader system; Molecular Devices, Sunnyvale, Calif.) instruments. Data obtained between 30 and 60 seconds after agonist application are used to generate an 8-point concentration response curve, with final capsaicin concentrations of 1 nM to 3 μM. KALEIDAGRAPH software (Synergy Software, Reading, Pa.) is used to fit the data to the equation: y=a*(1/(1+(b/x)^c)) to determine the 50% excitatory concentration (EC50) for the response. In this equation, y is the maximum fluorescence signal, x is the concentration of the agonist or antagonist (in this case, capsaicin), a is the Emax, b corresponds to the EC50 value and c is the Hill coefficient. Determination of Agonist Activity
Test compounds are dissolved in DMSO, diluted in 20 μl KRH buffer so that the final concentration of test compounds in the assay well is between 1 μM and 5 μM, and added to cells prepared as described above. The 96 well plates containing prepared cells and test compounds are incubated in the dark, at room temperature for 0.5 to 6 h. It is important that the incubation not continue beyond 6 h. Just prior to determining the fluorescence response, 100 μl capsaicin in KRH buffer at twice the EC50 concentration determined as described above is automatically added by the FLIPR instrument to each well of the 96 well plate for a final sample volume of 200 μl and a final capsaicin concentration equal to the EC50. The final concentration of test compounds in the assay wells is between 1 μM and 5 μM. […] The concentration of antagonist required to provide a 50% decrease, relative to the response observed in the presence of capsaicin and without antagonist, is the IC50 for the antagonist, and is preferably below 1 micromolar, 100 nanomolar, 10 nanomolar or 1 nanomolar.

T1 sequence (Q8NER1 whole entry): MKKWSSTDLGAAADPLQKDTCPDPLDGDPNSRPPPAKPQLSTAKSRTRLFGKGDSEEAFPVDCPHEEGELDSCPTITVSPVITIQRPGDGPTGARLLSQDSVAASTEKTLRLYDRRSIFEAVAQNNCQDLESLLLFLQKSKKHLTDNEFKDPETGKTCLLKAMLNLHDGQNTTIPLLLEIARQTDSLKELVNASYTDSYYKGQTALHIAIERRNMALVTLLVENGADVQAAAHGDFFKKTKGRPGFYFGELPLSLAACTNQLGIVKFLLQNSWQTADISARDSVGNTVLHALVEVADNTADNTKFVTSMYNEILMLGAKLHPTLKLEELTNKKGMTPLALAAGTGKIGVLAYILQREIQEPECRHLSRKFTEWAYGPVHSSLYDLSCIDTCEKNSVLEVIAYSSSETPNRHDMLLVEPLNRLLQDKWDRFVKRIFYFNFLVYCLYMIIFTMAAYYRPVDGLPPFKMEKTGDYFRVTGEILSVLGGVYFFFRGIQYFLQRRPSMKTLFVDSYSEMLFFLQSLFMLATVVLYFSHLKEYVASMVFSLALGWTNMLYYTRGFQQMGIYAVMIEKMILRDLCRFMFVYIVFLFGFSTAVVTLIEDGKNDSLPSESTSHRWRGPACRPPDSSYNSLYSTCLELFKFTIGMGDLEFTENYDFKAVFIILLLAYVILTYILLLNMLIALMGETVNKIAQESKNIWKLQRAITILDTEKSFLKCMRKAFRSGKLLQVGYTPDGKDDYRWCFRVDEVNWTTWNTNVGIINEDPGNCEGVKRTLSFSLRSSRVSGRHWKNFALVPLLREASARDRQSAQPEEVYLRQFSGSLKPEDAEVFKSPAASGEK

In the case of `CCOC(=O)c1cnc(N2CCN(c3cc(-c4ccccc4)nc(N4CCCC4C)n3)[C@H](C)C2)c(Cl)c1` (stereo partly drawn) [Example 41, 5-Chloro-6-{3-(R)-methyl-4-[2-(2-methyl-pyrrolidin-1-yl)-6-phenyl-pyrimidin-4-yl]-piperazin-1-yl}-nicotinic acid ethyl ester], the pIC50 was ≥ 6.00.

With `CCOC(=O)c1cnc(N2CCN(c3cc(-c4cncc(Cl)c4)nc(N4CCCC4C)n3)[C@H](C)C2)c(Cl)c1` (stereo partly drawn) [Example 42, 5-Chloro-6-{4-[6-(5-chloro-pyridin-3-yl)-2-(2-methyl-pyrrolidin-1-yl)-pyrimidin-4-yl]-3-(R)-methyl-piperazin-1-yl}-nicotinic acid ethyl ester] the pIC50 was ≥ 6.00.

With `CCOC(=O)c1cnc(N2CCN(c3cc(-c4ccnc(C(C)C)c4)nc(N4CCCC4C)n3)[C@H](C)C2)c(Cl)c1` (stereo partly drawn) [Example 43, 5-Chloro-6-{4-[6-(2-isopropyl-pyridin-4-yl)-2-(2-methyl-pyrrolidin-1-yl)-pyrimidin-4-yl]-3-(R)-methyl-piperazin-1-yl}-nicotinic acid ethyl ester] the pIC50 was ≥ 6.00.

For `Cc1cc(C(N)=O)cnc1N1CCN(c2cc(-c3ccc(F)cc3)nc(N3CCCC3C)n2)[C@H](C)C1` (stereo partly drawn) [Example 44, 6-{4-[6-(4-Fluoro-phenyl)-2-(2-methyl-pyrrolidin-1-yl)-pyrimidin-4-yl]-3-(R)-methyl-piperazin-1-yl}-5-methyl-nicotinamide], the pIC50 was ≥ 6.00.

`Cc1cc(C(N)=O)cnc1N1CCN(c2cc(-c3ccc(F)cc3)nc(N3CCCC3C)n2)CC1` (stereo not shown) [Example 45, 6-{4-[6-(4-Fluoro-phenyl)-2-(2-methyl-pyrrolidin-1-yl)-pyrimidin-4-yl]-piperazin-1-yl}-5-methyl-nicotinamide] was tested, and the pIC50 was ≥ 6.00.

With `CCOC(=O)c1cnc(N2CCN(c3cc(-c4cccc(C)c4)nc(N4CCCC4C)n3)[C@H](C)C2)c(Cl)c1` (stereo partly drawn) [Example 46, 5-Chloro-6-{3-(R)-methyl-4-[2-(2-methyl-pyrrolidin-1-yl)-6-m-tolyl-pyrimidin-4-yl]-piperazin-1-yl}-nicotinic acid ethyl ester] the pIC50 was ≥ 6.00.

For `CC1CCCN1c1nc(-c2ccccc2)cc(N2CCN(c3ncc(CO)cc3Cl)C[C@H]2C)n1` (stereo partly drawn) [Example 47, (5-Chloro-6-{3-(R)-methyl-4-[2-(2-methyl-pyrrolidin-1-yl)-6-phenyl-pyrimidin-4-yl]-piperazin-1-yl}-pyridin-3-yl)-methanol], the pIC50 was ≥ 6.00.

In the case of `Cc1cccc(-c2cc(N3CCN(c4ncc(CO)cc4Cl)C[C@H]3C)nc(N3CCCC3C)n2)c1` (stereo partly drawn) [Example 48, (5-Chloro-6-{3-(R)-methyl-4-[2-(2-methyl-pyrrolidin-1-yl)-6-m-tolyl-pyrimidin-4-yl]-piperazin-1-yl}-pyridin-3-yl)-methanol], the pIC50 was ≥ 6.00.

With `CC1CCCN1c1nc(-c2cncc(Cl)c2)cc(N2CCN(c3ncc(CO)cc3Cl)C[C@H]2C)n1` (stereo partly drawn) [Example 49, (5-Chloro-6-{4-[6-(5-chloro-pyridin-3-yl)-2-(2-methyl-pyrrolidin-1-yl)-pyrimidin-4-yl]-3-(R)-methyl-piperazin-1-yl}-pyridin-3-yl)-methanol] the pIC50 was ≥ 6.00.

For `CC(C)c1cc(-c2cc(N3CCN(c4ncc(CO)cc4Cl)C[C@H]3C)nc(N3CCCC3C)n2)ccn1` (stereo partly drawn) [Example 50, (5-Chloro-6-{4-[6-(2-isopropyl-pyridin-4-yl)-2-(2-methyl-pyrrolidin-1-yl)-pyrimidin-4-yl]-3-(R)-methyl-piperazin-1-yl}-pyridin-3-yl)-methanol], the pIC50 was ≥ 6.00.

In the case of `Cc1cccc(-c2cc(N3CCN(c4ncc(C(=O)O)cc4Cl)C[C@H]3C)nc(N3CCCC3C)n2)c1` (stereo partly drawn) [Example 51, 5-Chloro-6-{3-(R)-methyl-4-[2-(2-methyl-pyrrolidin-1-yl)-6-m-tolyl-pyrimidin-4-yl]-piperazin-1-yl}-nicotinic acid], the pIC50 was ≥ 6.00.

With `CC1CCCN1c1nc(-c2cncc(Cl)c2)cc(N2CCN(c3ncc(C(=O)O)cc3Cl)C[C@H]2C)n1` (stereo partly drawn) [Example 52, 5-Chloro-6-{4-[6-(5-chloro-pyridin-3-yl)-2-(2-methyl-pyrrolidin-1-yl)-pyrimidin-4-yl]-3-(R)-methyl-piperazin-1-yl}-nicotinic acid] the pIC50 was ≥ 6.00.

In the case of `CC(C)c1cc(-c2cc(N3CCN(c4ncc(C(=O)O)cc4Cl)C[C@H]3C)nc(N3CCCC3C)n2)ccn1` (stereo partly drawn) [Example 53, 5-Chloro-6-{4-[6-(2-isopropyl-pyridin-4-yl)-2-(2-methyl-pyrrolidin-1-yl)-pyrimidin-4-yl]-3-(R)-methyl-piperazin-1-yl}-nicotinic acid], the pIC50 was ≥ 6.00.

For `CCOC(=O)c1cnc(N2CCN(c3cc(-c4ccccc4)nc(N4CCCC4C)n3)CC2)c(C)c1` (stereo not shown) [Example 54, 5-Methyl-6-{4-[2-(2-methyl-pyrrolidin-1-yl)-6-phenyl-pyrimidin-4-yl]-piperazin-1-yl}-nicotinic acid ethyl ester], the pIC50 was ≥ 6.00.

`CCOC(=O)c1cnc(N2CCN(c3cc(-c4cccc(C)c4)nc(N4CCCC4C)n3)CC2)c(C)c1` (stereo not shown) [Example 55, 5-Methyl-6-{4-[2-(2-methyl-pyrrolidin-1-yl)-6-m-tolyl-pyrimidin-4-yl]-piperazin-1-yl}-nicotinic acid ethyl ester] was tested, and the pIC50 was ≥ 6.00.

In the case of `CCOC(=O)c1cnc(N2CCN(c3cc(-c4ccncc4)nc(N4CCCC4C)n3)CC2)c(C)c1` (stereo not shown) [Example 56, 5-Methyl-6-{4-[2-(2-methyl-pyrrolidin-1-yl)-6-pyridin-4-yl-pyrimidin-4-yl]-piperazin-1-yl}-nicotinic acid ethyl ester], the pIC50 was ≥ 6.00.

`CCOC(=O)c1cnc(N2CCN(c3cc(-c4ccnc(C(C)C)c4)nc(N4CCCC4C)n3)CC2)c(C)c1` (stereo not shown) [Example 57, 6-{4-[6-(2-Isopropyl-pyridin-4-yl)-2-(2-methyl-pyrrolidin-1-yl)-pyrimidin-4-yl]-piperazin-1-yl}-5-methyl - nicotinic acid ethyl ester] was tested, and the pIC50 was ≥ 6.00.

With `CCOC(=O)c1cnc(N2CCN(c3cc(-c4ccccc4)nc(N4CCCC4C)n3)[C@H](C)C2)c(C)c1` (stereo partly drawn) [Example 58, 5-Methyl-6-{3-(R)-methyl-4-[2-(2-methyl-pyrrolidin-1-yl)-6-phenyl-pyrimidin-4-yl]-piperazin-1-yl}-nicotinic acid ethyl ester] the pIC50 was ≥ 6.00.

For `CCOC(=O)c1cnc(N2CCN(c3cc(-c4cccc(C)c4)nc(N4CCCC4C)n3)[C@H](C)C2)c(C)c1` (stereo partly drawn) [Example 59, 5-Methyl-6-{3-(R)-methyl-4-[2-(2-methyl-pyrrolidin-1-yl)-6-m-tolyl-pyrimidin-4-yl]-piperazin-1-yl}-nicotinic acid ethyl ester], the pIC50 was ≥ 6.00.

For `CCOC(=O)c1cnc(N2CCN(c3cc(-c4ccncc4)nc(N4CCCC4C)n3)[C@H](C)C2)c(C)c1` (stereo partly drawn) [Example 60, 5-Methyl-6-{3-(R)-methyl-4-[2-(2-methyl-pyrrolidin-1-yl)-6-pyridin-4-yl-pyrimidin-4-yl] -piperazin-1-yl}-nicotinic acid ethyl ester], the pIC50 was ≥ 6.00.

In the case of `CCOC(=O)c1cnc(N2CCN(c3cc(-c4ccnc(C(C)C)c4)nc(N4CCCC4C)n3)[C@H](C)C2)c(C)c1` (stereo partly drawn) [Example 61, 6-{4-[6-(2-Isopropyl-pyridin-4-yl)-2-(2-methyl-pyrrolidin-1-yl)-pyrimidin-4-yl]-3-(R)-methyl-piperazin-1-yl}-5-methyl-nicotinic acid ethyl ester], the pIC50 was ≥ 6.00.

For `CCOC(=O)c1cnc(N2CCN(c3cc(-c4ccc(F)cc4)nc(N(C)C)n3)[C@H](C)C2)c(C)c1` [Example 62, 6-{4-[2-Dimethylamino-6-(4-fluoro-phenyl)-pyrimidin-4-yl]-3-(R)-methyl-piperazin-1-yl}-5-methyl-nicotinic acid ethyl ester], the pIC50 was ≥ 6.00.
